Test results as given in article PMC8379256, “A xanthene derivative, DS20060511, attenuates glucose intolerance by inducing skeletal muscle-specific GLUT4 translocation in mice” (Communications Biology, 2021).
“And” between values parts separate entries of the source, which are not always exact repeats. Equal values may be shown once.

Experiments:
GLUT4 = GLUT4 protein in plasma membrane fraction of triceps surae muscle (immunoblot); type: in vivo, mouse; settings: DS20060511 10 mg kg−1 or insulin 5 U kg−1 via inferior vena cava, 10 min; Fig. 2e
Procedure: The plasma membrane fraction of each skeletal muscle specimen was prepared as described previously[48],[49]. Briefly, the triceps surae muscle was homogenized in Buffer A (20 mM HEPES, 1 mM EDTA, 1 mM PMSF, and protease inhibitor) containing 250 mM sucrose on ice. The muscle homogenate was centrifuged at 2000 × g for 10 min at 4 °C to remove any unhomogenized muscle fibers. The supernatant was then centrifuged at 19,000 × g for 20 min at 4 °C. The pellet was resuspended in 3 mL Buffer A, layered on a 6 mL sucrose cushion (38% sucrose in Buffer A) and centrifuged at 100,000 × g for 60 min at 4 °C. The membrane fraction recovered on top of the sucrose cushion was resuspended in Buffer A and centrifuged at 40,000 × g for 20 min at 4 °C. The pellet was designated as the plasma membrane fraction and subjected to immunoblotting.
Phosphorylated or total protein of IRβ and IRS1 was resolved on 7% SDS-PAGE and analyzed using specific antibodies against IRβ, IRS1, and phosphotyrosine. […] Bound antibodies were detected with HRP-conjugated secondary antibodies using ECL detection reagents (GE Healthcare, Chicago, IL).

C57BL/6 mice = assay: Indirect calorimetry and exercise endurance under stepwise treadmill running; type: in vivo, mouse; settings: for Fat oxodation, sum over interval / Gluocse oxdation, sum over interval / Fat oxodation / Gluocse oxdation: individual mice 1-7
Procedure: The mice were acclimatized to the treadmill by allowing them to run at 10 m min^−1 for 10 min on the day before the test. On the day of the test, the mice received oral administration of 30 mg kg^−1 of DS20060511 or vehicle 15 min before they were made to run. The treadmill was started at a velocity of 10 m min^−1, with the speed increased stepwise by 2 m min^−1 every 3 min, to assess the exercise endurance capacity as described previously. Measurements of the oxygen consumption (VO2) and exhaled carbon dioxide (VCO2) under treadmill running were conducted with the ARCO-2000 magnetic-type mass spectrometric calorimeter (ARCO System, Kashiwa, Japan) connected to the treadmill chamber (MB-2000, ARCO System). The RER was calculated as the VCO2/VO2 ratio and the substrate utilization rates were calculated using Frayn’s formula[51]: rate of glucose oxidation = 4.585VCO2 − 3.226VO2; rate of fat oxidation = 1.695VO2 − 1.701VCO2. The exercise endurance capacity under treadmill running was determined by measuring the time from the start to the time until the mice ceased to run because of exhaustion, which was defined as remaining on the shocker plate for more than 10 sec. Immediately after the exercise, the blood glucose and lactate levels were measured using Glutest Every and Lactate Pro2 (ARKRAY, Kyoto, Japan), respectively, in blood samples collected from the tail vein.

[1] = 30 mg kg−1 po vs vehicle, treadmill running

COc1ccc2c(C)c(C(=O)O)ccc2c1C1C2=C(CC(C)(C)CC2=O)OC2=C1C(=O)CC(C)(C)C2 [DS20060511]
GLUT4 protein expression levels in the plasma membrane fraction of skeletal muscles (GLUT4): increased GLUT4 protein expression levels in the plasma membrane fraction
blood lactate levels after exercise (C57BL/6 mice; 30 mg kg−1 po vs vehicle): comparable between the two groups
exercise endurance capacity (C57BL/6 mice; 30 mg kg−1 po vs vehicle, stepwise treadmill): comparable between the two groups
estimated glucose oxidation (C57BL/6 mice; [1]): significantly higher
fat oxidation (C57BL/6 mice; [1]): significantly lower
respiratory exchange ratio (RER) (C57BL/6 mice; [1]): relatively higher
blood glucose levels after exercise (C57BL/6 mice; 30 mg kg−1 po, after treadmill running): decreased significantly after exercise
Fat oxodation, sum over interval (C57BL/6 mice; 30 mg/kg, 0-10 min): 427.8 mg/min/kg and 293.6 mg/min/kg and 420.7 mg/min/kg and 305.9 mg/min/kg and 318.6 mg/min/kg and 347.3 mg/min/kg and 349.7 mg/min/kg
Gluocse oxdation, sum over interval (C57BL/6 mice; 30 mg/kg, 0-10 min): 257.7 mg/min/kg and 558.0 mg/min/kg and 414.2 mg/min/kg and 313.5 mg/min/kg and 385.3 mg/min/kg and 424.4 mg/min/kg and 413.9 mg/min/kg
Fat oxodation, sum over interval (C57BL/6 mice; 30 mg/kg, 10-20 min): 395.5 mg/min/kg and 242.6 mg/min/kg and 385.0 mg/min/kg and 272.2 mg/min/kg and 293.7 mg/min/kg and 348.5 mg/min/kg and 252.4 mg/min/kg
Gluocse oxdation, sum over interval (C57BL/6 mice; 30 mg/kg, 10-20 min): 391.9 mg/min/kg and 729.7 mg/min/kg and 425.7 mg/min/kg and 359.9 mg/min/kg and 949.6 mg/min/kg and 631.1 mg/min/kg and 663.2 mg/min/kg
Fat oxodation, sum over interval (C57BL/6 mice; 30 mg/kg, 20-30 min): 322.9 mg/min/kg and 234.0 mg/min/kg and 346.7 mg/min/kg and 272.4 mg/min/kg and 262.3 mg/min/kg and 313.5 mg/min/kg and 371.5 mg/min/kg
Gluocse oxdation, sum over interval (C57BL/6 mice; 30 mg/kg, 20-30 min): 572.7 mg/min/kg and 770.3 mg/min/kg and 804.1 mg/min/kg and 468.4 mg/min/kg and 807.5 mg/min/kg and 860.4 mg/min/kg and 944.3 mg/min/kg
Fat oxodation (C57BL/6 mice; 30 mg/kg, 2 min): 49.1 mg/min/kg and 32.5 mg/min/kg and 45.5 mg/min/kg and 29.3 mg/min/kg and 25.5 mg/min/kg and 31.7 mg/min/kg and 38.3 mg/min/kg
Gluocse oxdation (C57BL/6 mice; 30 mg/kg, 2 min): 22.8 mg/min/kg and 54.5 mg/min/kg and 47.8 mg/min/kg and 35.8 mg/min/kg and 26.2 mg/min/kg and 31.5 mg/min/kg and 33.5 mg/min/kg
Fat oxodation (C57BL/6 mice; 30 mg/kg, 3 min): 47.1 mg/min/kg and 30.9 mg/min/kg and 42.8 mg/min/kg and 30.0 mg/min/kg (2×) and 34.1 mg/min/kg and 36.3 mg/min/kg
Gluocse oxdation (C57BL/6 mice; 30 mg/kg, 3 min): 23.3 mg/min/kg and 55.7 mg/min/kg and 37.4 mg/min/kg and 36.0 mg/min/kg and 29.4 mg/min/kg and 34.4 mg/min/kg and 37.0 mg/min/kg
Fat oxodation (C57BL/6 mice; 30 mg/kg, 4 min): 45.2 mg/min/kg and 28.8 mg/min/kg and 42.6 mg/min/kg and 34.0 mg/min/kg and 60.9 mg/min/kg and 33.7 mg/min/kg and 35.2 mg/min/kg
Gluocse oxdation (C57BL/6 mice; 30 mg/kg, 4 min): 24.4 mg/min/kg and 56.1 mg/min/kg and 36.3 mg/min/kg and 34.1 mg/min/kg and 30.0 mg/min/kg and 35.7 mg/min/kg and 43.6 mg/min/kg
Fat oxodation (C57BL/6 mice; 30 mg/kg, 5 min): 42.0 mg/min/kg (2×) and 29.8 mg/min/kg and 30.0 mg/min/kg and 28.6 mg/min/kg and 36.6 mg/min/kg and 31.5 mg/min/kg
Gluocse oxdation (C57BL/6 mice; 30 mg/kg, 5 min): 25.9 mg/min/kg and 58.5 mg/min/kg and 35.2 mg/min/kg and 29.7 mg/min/kg and 36.7 mg/min/kg and 43.4 mg/min/kg and 40.9 mg/min/kg
Fat oxodation (C57BL/6 mice; 30 mg/kg, 6 min): 40.6 mg/min/kg and 28.1 mg/min/kg (2×) and 39.9 mg/min/kg and 29.8 mg/min/kg and 36.7 mg/min/kg and 34.9 mg/min/kg
Gluocse oxdation (C57BL/6 mice; 30 mg/kg, 6 min): 27.6 mg/min/kg and 62.3 mg/min/kg and 41.7 mg/min/kg and 27.0 mg/min/kg and 29.5 mg/min/kg and 41.2 mg/min/kg and 41.6 mg/min/kg
Fat oxodation (C57BL/6 mice; 30 mg/kg, 7 min): 44.6 mg/min/kg and 27.7 mg/min/kg and 40.8 mg/min/kg and 31.0 mg/min/kg and 29.7 mg/min/kg and 36.4 mg/min/kg and 33.0 mg/min/kg
Gluocse oxdation (C57BL/6 mice; 30 mg/kg, 7 min): 25.8 mg/min/kg and 57.6 mg/min/kg and 41.7 mg/min/kg and 27.6 mg/min/kg and 31.8 mg/min/kg and 41.2 mg/min/kg and 41.5 mg/min/kg
Fat oxodation (C57BL/6 mice; 30 mg/kg, 8 min): 40.5 mg/min/kg and 29.5 mg/min/kg and 42.0 mg/min/kg and 36.5 mg/min/kg and 31.2 mg/min/kg and 35.1 mg/min/kg and 53.1 mg/min/kg
Gluocse oxdation (C57BL/6 mice; 30 mg/kg, 8 min): 25.7 mg/min/kg and 46.1 mg/min/kg and 38.7 mg/min/kg and 30.3 mg/min/kg and 43.2 mg/min/kg and 42.8 mg/min/kg and 44.9 mg/min/kg
Fat oxodation (C57BL/6 mice; 30 mg/kg, 9 min): 38.5 mg/min/kg (2×) and 26.8 mg/min/kg and 37.4 mg/min/kg and 31.8 mg/min/kg and 32.4 mg/min/kg and 27.0 mg/min/kg
Gluocse oxdation (C57BL/6 mice; 30 mg/kg, 9 min): 33.9 mg/min/kg and 53.4 mg/min/kg and 38.5 mg/min/kg and 22.6 mg/min/kg and 54.7 mg/min/kg and 55.4 mg/min/kg and 48.5 mg/min/kg
Fat oxodation (C57BL/6 mice; 30 mg/kg, 10 min): 34.8 mg/min/kg and 27.2 mg/min/kg and 41.0 mg/min/kg and 29.8 mg/min/kg and 30.4 mg/min/kg and 34.2 mg/min/kg and 23.3 mg/min/kg
Gluocse oxdation (C57BL/6 mice; 30 mg/kg, 10 min): 30.0 mg/min/kg and 56.7 mg/min/kg and 39.2 mg/min/kg and 35.9 mg/min/kg and 69.2 mg/min/kg and 58.5 mg/min/kg and 43.5 mg/min/kg
Fat oxodation (C57BL/6 mice; 30 mg/kg, 11 min): 31.8 mg/min/kg and 26.7 mg/min/kg and 43.5 mg/min/kg and 30.9 mg/min/kg and 23.0 mg/min/kg and 34.9 mg/min/kg and 24.3 mg/min/kg
Gluocse oxdation (C57BL/6 mice; 30 mg/kg, 11 min): 26.2 mg/min/kg and 54.7 mg/min/kg and 51.9 mg/min/kg and 29.4 mg/min/kg and 70.2 mg/min/kg and 68.8 mg/min/kg and 48.6 mg/min/kg
Fat oxodation (C57BL/6 mice; 30 mg/kg, 12 min): 38.6 mg/min/kg and 27.7 mg/min/kg and 39.9 mg/min/kg and 32.1 mg/min/kg and 28.8 mg/min/kg and 35.4 mg/min/kg and 26.2 mg/min/kg
Gluocse oxdation (C57BL/6 mice; 30 mg/kg, 12 min): 31.9 mg/min/kg and 64.6 mg/min/kg and 37.7 mg/min/kg and 26.9 mg/min/kg and 70.4 mg/min/kg and 57.6 mg/min/kg and 47.4 mg/min/kg
Fat oxodation (C57BL/6 mice; 30 mg/kg, 13 min): 43.1 mg/min/kg and 20.9 mg/min/kg and 41.6 mg/min/kg and 25.9 mg/min/kg and 29.8 mg/min/kg and 35.1 mg/min/kg and 26.2 mg/min/kg
Gluocse oxdation (C57BL/6 mice; 30 mg/kg, 13 min): 26.0 mg/min/kg and 67.8 mg/min/kg and 36.1 mg/min/kg and 27.0 mg/min/kg and 75.8 mg/min/kg and 55.4 mg/min/kg and 71.1 mg/min/kg
Fat oxodation (C57BL/6 mice; 30 mg/kg, 14 min): 40.8 mg/min/kg and 24.1 mg/min/kg and 37.9 mg/min/kg and 28.8 mg/min/kg and 31.7 mg/min/kg and 36.1 mg/min/kg and 24.4 mg/min/kg
Gluocse oxdation (C57BL/6 mice; 30 mg/kg, 14 min): 35.1 mg/min/kg and 58.5 mg/min/kg and 33.2 mg/min/kg and 25.3 mg/min/kg and 81.8 mg/min/kg and 57.9 mg/min/kg and 62.6 mg/min/kg
Fat oxodation (C57BL/6 mice; 30 mg/kg, 15 min): 37.9 mg/min/kg and 23.3 mg/min/kg and 38.6 mg/min/kg and 27.4 mg/min/kg and 30.7 mg/min/kg and 40.7 mg/min/kg and 24.3 mg/min/kg
Gluocse oxdation (C57BL/6 mice; 30 mg/kg, 15 min): 36.9 mg/min/kg and 60.6 mg/min/kg and 34.7 mg/min/kg and 16.1 mg/min/kg and 95.7 mg/min/kg and 52.2 mg/min/kg and 66.3 mg/min/kg
Fat oxodation (C57BL/6 mice; 30 mg/kg, 16 min): 43.4 mg/min/kg and 24.7 mg/min/kg
Gluocse oxdation (C57BL/6 mice; 30 mg/kg, 16 min): 35.4 mg/min/kg and 77.5 mg/min/kg
CO2 Production (VCO2) (C57BL/6 mice; DS20060511 30 mg/kg, 2 min, individual mice 1-7, Fig. 5a, 30 mg/kg): 92.8 mL/min/kg and 70.8 mL/min/kg and 81.2 mL/min/kg and 81.9 mL/min/kg and 71.5 mL/min/kg and 71.3 mL/min/kg and 73.6 mL/min/kg
